{
  "source": "paper doi:10.1101/215335v1",
  "about": "(biorxiv, 2017)",
  "molecular_target": "T1, TaALMT1 (Triticum aestivum, UniProt Q76LB1)",
  "T1 sequence (Q76LB1 1-459)": "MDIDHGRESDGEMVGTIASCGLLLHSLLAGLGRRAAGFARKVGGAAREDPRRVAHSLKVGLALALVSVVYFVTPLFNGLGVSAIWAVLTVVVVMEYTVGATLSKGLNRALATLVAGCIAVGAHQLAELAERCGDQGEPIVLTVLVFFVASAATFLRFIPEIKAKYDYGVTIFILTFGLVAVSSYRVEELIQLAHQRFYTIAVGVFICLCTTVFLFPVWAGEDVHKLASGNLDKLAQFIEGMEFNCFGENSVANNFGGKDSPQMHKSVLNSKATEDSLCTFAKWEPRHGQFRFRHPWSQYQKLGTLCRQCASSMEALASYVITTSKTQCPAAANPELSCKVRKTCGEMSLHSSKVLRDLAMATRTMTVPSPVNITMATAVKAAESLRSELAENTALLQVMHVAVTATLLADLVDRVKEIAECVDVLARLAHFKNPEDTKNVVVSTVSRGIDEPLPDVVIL",
  "test": "TEVC in Xenopus oocytes, malate-activated inward current",
  "type": "cell-based",
  "details": "read-out: % inhibition at 100 μM",
  "data": [
    {"smiles": "C=CC(N)CCC(=O)O", "note": "(stereo not shown) [vigabatrin]", "values": [
      {"measurement": "inhibition at 100 µM", "value": 100, "unit": "%"}
    ]}
  ]
}
